From PMC8746574 (Molecules, 2022)
Like-named read-outs stand apart in the source and are kept apart here.

Tests used:
in vitro = conditions: African green monkey
[1] = test system: SARS-CoV-2 hCoV-19/Australia/VIC01/2020 (lineage B); experiment: Reduction of cytopathic effect on Vero E6 cells, MTT, strain hCoV-19/Australia/VIC01/2020; type: cell-based
[2] = test system: HIV-1 pseudotyped virus OH0692 (subtype B); experiment: TZM-bl neutralization assay with HIV-1 env-pseudovirus OH0692; type: cell-based; conditions: read-out: IC50 OH0692; HIV-1 env-pseudovirus OH0692, TZM-bl cells, luciferase after 48 h
[3] = test system: HIV-1 pseudotyped virus 16RU28 (recombinant form CRF63_02A); experiment: TZM-bl neutralization assay with HIV-1 env-pseudovirus 16RU28; type: cell-based; conditions: read-out: IC50 16RU28; HIV-1 env-pseudovirus 16RU28 (CRF63_02A), TZM-bl cells, luciferase after 48 h
[4] = test system: HIV-1 pseudotyped virus SF162.LS (subtype B); experiment: TZM-bl neutralization assay with HIV-1 env-pseudovirus SF162.LS; type: cell-based; conditions: read-out: IC50 SF162.LS, TZM-bl cells, luciferase after 48 h
TZM-bl cells = experiment: MTT cytotoxicity assay in TZM-bl cells; type: cell-based; conditions: MTT test
Procedure: (§1) The cytotoxicity of the obtained compounds was assessed in TZM-bl cells using the MTT test. The preparations were diluted with DMEM medium so that their starting concentration was 1000 μM and the final volume of DMSO was no more than 1%. Additionally, we compared the cytotoxicity of DMEM and medium with 1% DMSO in TZM-bl cells and found no significant differences in cell survival. […] A range of non-toxic concentrations was determined for each compound and used in subsequent experiments on their antiviral activity.
(§2) TZM-bl cells were seeded into 96-well culture plates (100 μL of cell suspension or 10^4 p cells per well) and placed in a CO2 incubator. The test compounds were dissolved in DMSO at a concentration of 100 mM. After 24 h of incubation, various concentrations of the test compounds (1000, 500, 250, 125, 62.5, 31.25, and 15.6 μM) were added by titration to the TZM-bl cell culture, in triplicates. DMSO was added to the control wells at a concentration of no more than 1%. The plates with the introduced drugs were incubated in a CO2 incubator at 37 °C under 5% CO2. After 72 h of incubation, 20 μL of MTT working solution (5 mg/mL) was added to each well and the plates were again incubated under the same conditions. After 2 h, the plates were removed from the CO2 incubator, and the medium in each well was replaced with DMSO solution (50 μL per well). The plates were shaken gently to dissolve the formazan crystals. The optical density of each well was determined at 570 nm using a Varioscan LUX plate reader (Thermo scientific). The survival rate of TZM-bl cells in the presence of the tested compounds was calculated using the formula: (OD of experimental wells—OD of medium)/(OD of control wells—OD of medium) × 100%, where OD is optical density.

[5] = MTT cytotoxicity assay in TZM-bl cells; type: cell-based; conditions: human; TZM-bl cells, MTT test, 72 h incubation
Procedure: as §1, §2

[6] = test system: SARS-CoV-2 (three strains); experiment: Antiviral activity against three strains of SARS-CoV-2 on Vero E6 cells (summary statements)
[7] = test system: HIV-1 pseudotyped viruses; experiment: Inhibitory activity against HIV-1 pseudoviruses in TZM-bl cells (summary statements); type: cell-based; conditions: neutralizing assays, SF162.LS, QH0692, 16RU28
Procedure: To evaluate the inhibitory activities of the synthesized compounds, HIV-1 pseudotyped viruses SF162.LS and […] subtype B (which are included in the international reference panel), and pseudotyped viruses of the recombinant form CRF63_02A—16RU28 HIV-1 were used. Genetic variant CRF63_02A is currently the dominant type in Siberia and is rapidly spreading in the rest of the Russian Federation.
The anti-HIV-1 activity of the tested compounds was performed using the TZM-bl assay, carried out in 96-well culture plates, as described previously. Briefly, serial 2-fold dilutions of the tested compounds were prepared in DMEM growth medium, 200 TCID50 pseudovirus were added to each well and incubated for 1 h at 37 °C under 5% CO2. Trypsinized TZM-bl cell suspension was then added (100 μL of 2 × 10^5 cells/mL) and plates were further incubated at 37 °C under 5% CO2. After 48 h, the luminescence signal was recorded using the luciferase assay system (Promega). The percent inhibition for each compound was calculated as the ratio between the relative luminescence unit (RLU) values of the test wells (sample + pseudovirus + cells) and the virus control (pseudovirus + cells). Samples were tested in triplicates, and the experiment was repeated twice.

Compound	parameter C of 4-parameter fit, toxity curve (Vero E6 cells; SOFTmax PRO 4.0, primary data, plate with strain B)	CC50 at 4 days (in vitro; Vero E6 cells)	IC50 ([1]; Severe acute respiratory syndrome coronavirus 2, Vero C1008, 96 h, Vero E6 cells, 100 TCD50 per well, 4 days, MTT, lineage B, read-out: IC50 hCoV-19/Aust/VIC01/2020)	IC50 ([1]; Vero C1008, SARS-CoV 2 (B), SOFTmax PRO 4.0, primary data, read-out: parameter C of 4-parameter fit, activity curve)	IC50 [2]	IC50 [3]	IC50 [4]	cytotoxicity on Vero cells (in words) (Vero E6 cells)	CC50 (in vitro)	toxicity against the TZM-bl cell line (in words) (TZM-bl cells)	CC50 at 72 h [5]	antiviral activity against the three coronavirus strains (in words) [6]	inhibitory activity against HIV-1 pseudotyped viruses (in words) [7]
CCC(CC)COC(=O)[C@H](C)N[P@](=O)(OC[C@H]1O[C@@](C#N)(c2ccc3c(N)ncnn23)[C@H](O)[C@@H]1O)Oc1ccccc1 [Remdesivir]	428,695 µg/ml	711 ± 21.2 µM	3.3 ± 0.12 µM	2020 µg/mL									
Maraviroc [MVC]					0.002 µM	0.0016 µM	0.002 µM						
CC1(C)C2CC[C@]3(C)C(C(=O)C=C4[C@@H]5C[C@@](C)(C(=O)O)CC[C@]5(C)CC[C@]43C)[C@@]2(C)CC[C@@H]1OC(=O)c1cccnc1 (stereo partly shown) [Nic-GA, glycyrrhetinic acid nicotinate]								less toxic to Vero cells than to Tzm-bl cells	101 µM	some cytotoxic activity	< 7.8 µM	did not exhibit any antiviral activity	lack of inhibition
CC1(C)[C@@H](O[C@H]2O[C@H](C(=O)O)[C@@H](O)[C@H](O)[C@H]2O[C@@H]2O[C@H](C(=O)O)[C@@H](O)[C@H](O)[C@H]2O)CC[C@]2(C)[C@H]3C(=O)C=C4[C@@H]5C[C@@](C)(C(=O)O)CC[C@]5(C)CC[C@@]4(C)[C@]3(C)CC[C@@H]12 [Glycyrrhizin]								no cytotoxicity	> 1000 µM	negligible toxicity	> 1000 µM	no antiviral activity	did not exhibit any inhibitory activity
